Assay [1] deals with T1, hCES1A (Homo sapiens, UniProt P23141).
T1 construct: tissue Bioreclamation IVT lot No. X008067; host or cells: pooled human liver microsomes from 50 donors
T1 sequence (P23141 18-567): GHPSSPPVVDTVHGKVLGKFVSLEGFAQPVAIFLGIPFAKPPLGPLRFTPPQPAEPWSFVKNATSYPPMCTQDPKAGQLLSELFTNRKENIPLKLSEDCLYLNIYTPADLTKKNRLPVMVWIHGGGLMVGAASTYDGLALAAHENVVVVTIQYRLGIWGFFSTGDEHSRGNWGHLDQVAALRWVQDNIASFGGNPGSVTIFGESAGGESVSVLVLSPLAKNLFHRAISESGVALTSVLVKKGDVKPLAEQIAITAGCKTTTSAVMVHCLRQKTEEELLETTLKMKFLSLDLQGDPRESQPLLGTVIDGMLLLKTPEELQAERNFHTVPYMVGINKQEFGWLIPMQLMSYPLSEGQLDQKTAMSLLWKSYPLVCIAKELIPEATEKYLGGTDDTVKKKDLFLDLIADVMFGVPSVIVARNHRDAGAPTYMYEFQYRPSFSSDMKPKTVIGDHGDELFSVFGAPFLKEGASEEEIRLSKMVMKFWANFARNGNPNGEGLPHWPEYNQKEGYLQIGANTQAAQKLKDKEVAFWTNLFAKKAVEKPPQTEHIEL
Briefly: Inhibition of hCES1A-mediated NLMe hydrolysis in human liver microsomes. It is filed as biochemical. The settings on record: for Inhibition mode hCES1A / Ki / IC50: NLMe substrate, HLM; for Ki: Lineweaver–Burk second plot; for IC50: mean ± SD (n = 3), read-out: IC50 (µM) hCES1A; for Reversibility of hCES1A inhibition: dose-response curves not affected by pre-incubation times. Here is the method: N-Alkylated D-luciferin methyl ester (NLMe), a Specific probe for hCES1A[45], was used for assessing the inhibitory effects for triterpenoids, and BNPP was used as a positive inhibitor of hCES1A. […] Then NLMe (2 µL, 0.15 mM) was added to start the reaction. After shaking the reaction in 37 °C incubator for 10 min, 50 µL of reaction solution was removed and mixed with LDR (50 µL) to terminate the reaction. A multi-mode microplate reader was used to detect the luminescence signal of NL (the hydrolysed metabolite of NLMe). The luminescence product of NL was measured at 580 nm (gain: 140). The final volume ratio of DMSO was less than 1% (V/V).
Subsequently, various concentrations of substrates (selected according to Km) and different concentrations of inhibitors were used to determine the corresponding reaction rate, and the second slope graph of the Lineweaver–Burk diagram was used as a function of the inhibitor to calculate the corresponding inhibition constant (Ki) value. All kinetic data were fitted by the following kinetic equations (a–c), for competitive (a), non-competitive (b) and mixed inhibition (c): (a) V=(VmaxS)/[Km(1+I/Ki)+S] (b) V=(VmaxS)/[(Km+S)×(1+I/Ki)] (c) V=(VmaxS)/[(Km+S)×(1+I/αKi)] where V is the hydrolytic velocity of the reaction, Vmax is the maximum velocity. S and I are substrate (4-MUO, NLMe) and inhibitor (compound 39/41) concentrations, respectively. Ki is the inhibition constant of the tested inhibitor against the target PL and hCES1A; Km is the Michaelis constant (the substrate concentration at half of the Vmax).
All measurements were made in triplicate and the data obtained in the experiment were shown as mean ± SD. The IC50 and Ki values of the compounds with strong inhibitory effect were evaluated by nonlinear regression with graphpad prism 7.0 software (GraphPad Software, Inc., La Jolla, CA).
A general note: Microsomes from liver hold many membrane-bound enzymes, among them those of drug oxidation.

For assay [2], the system named is 3T3-L1 cells. Briefly: Lipid droplet formation in differentiating 3T3-L1 cells (Oil red O staining). It is filed as cell-based, mouse. The settings on record: high concentration (5 µM). As to the method: The cells were planted in a well plate and cultured for 48 h after the cells were 100% confluent. Mix inhibitors compounds 39 and 41 with solution I (10 µg/mL insulin in DMEM/F: 12 medium, 0.5 mM 3-isobutyl-1-methylxanthine and […]) to different concentrations, Then added to different wells and incubated for 48 h, then the inhibitor was mixed with solution II (5 µg/mL insulin in DMEM/F: 12 medium), then added to the wells of the same concentration and incubated for 48 h. Then, the medium in the well was replaced with DMEM/F:12 medium with different concentrations of inhibitors, and the culture was continued for 48 h.
The lipid droplets of 3T3-L1 cells were stained with Oil Red O stain kit (Beijing solebo Technology Co., Ltd., Beijing, China) after cultured for 48 h. In short, 3T3-L1 cells were washed with PBS 2 times and fixed with ORO fixative for 20–30 min, and then washed again with deionised water for 3 times. Then, 3T3-L1 cells were washed with 60% isopropanol for 5 min, immersed in oil red O solution for 10–20 min, and washed with deionised water for 3–5 times. Mayer's haematoxylin staining solution was added, the nucleus was stained for 1–2 min, then washed for 3–5 times, and Oro buffer solution was added for 1 min. Finally, distilled water was added to cover the cells. The stained lipid droplets were observed under inverted microscope (Lecai DMI8).

In assay [3] the target is T2, hCES2A (Homo sapiens, UniProt O00748).
T2 sequence (O00748 27-559): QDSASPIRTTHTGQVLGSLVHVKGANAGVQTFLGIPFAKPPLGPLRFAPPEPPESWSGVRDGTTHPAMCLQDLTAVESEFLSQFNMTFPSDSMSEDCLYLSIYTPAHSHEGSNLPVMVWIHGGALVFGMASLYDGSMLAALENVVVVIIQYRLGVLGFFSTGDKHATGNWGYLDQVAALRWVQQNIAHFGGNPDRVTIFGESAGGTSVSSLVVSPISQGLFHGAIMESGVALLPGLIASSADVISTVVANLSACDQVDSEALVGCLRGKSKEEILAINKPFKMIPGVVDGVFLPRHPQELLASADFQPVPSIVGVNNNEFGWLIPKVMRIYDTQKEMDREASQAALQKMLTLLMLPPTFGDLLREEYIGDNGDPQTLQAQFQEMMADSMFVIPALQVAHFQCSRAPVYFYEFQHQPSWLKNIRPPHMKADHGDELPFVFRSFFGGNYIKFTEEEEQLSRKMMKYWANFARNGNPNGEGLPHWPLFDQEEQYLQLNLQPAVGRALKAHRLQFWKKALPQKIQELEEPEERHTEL
Briefly: Inhibition of hCES2A-mediated FD hydrolysis. It counts as biochemical. The settings on record: FD substrate, mean ± SD (n = 3); read-out: IC50 (µM) hCES2A. From the text:
[…] (FD) was used as the hCES2A specific probe substrate to assay the inhibitory effect of natural triterpenoids on hCES2A. The entire detailed operation process refers to the previously reported method, and finally the FD mixture was put into the multi-mode microplate reader for analysis and detection.

Assay [4] deals with dipeptidyl peptidase-IV (DPP-IV) (Homo sapiens, UniProt P27487). Briefly: Inhibition of DPP-IV-mediated GP-BAN hydrolysis. It is filed as biochemical. The settings on record: substrate: GP-BAN. As to the method:
The details for DPP-IV inhibition has been reported previously[49]^,[50]. The fluorescent signal of the hydrolytic product (BAN) was measured by a fluorescence microplate reader at an excitation wavelength of 430 nm, an emission wavelength of 535 nm (gain = 500).

Some results are limits rather than exact numbers.

Here are results for 2 compounds from publication PMC8812735, “Discovery of triterpenoids as potent dual inhibitors of pancreatic lipase and human carboxylesterase 1” (Journal of Enzyme Inhibition and Medicinal Chemistry, 2022).

As a reminder, the Ki is the equilibrium dissociation constant of an inhibitor or competing ligand from its target. Higher therefore signals lower affinity. Usually IC50 stands for the midpoint of a concentration-inhibition curve.

Sequence of dipeptidyl peptidase-IV (DPP-IV) (P27487 whole entry): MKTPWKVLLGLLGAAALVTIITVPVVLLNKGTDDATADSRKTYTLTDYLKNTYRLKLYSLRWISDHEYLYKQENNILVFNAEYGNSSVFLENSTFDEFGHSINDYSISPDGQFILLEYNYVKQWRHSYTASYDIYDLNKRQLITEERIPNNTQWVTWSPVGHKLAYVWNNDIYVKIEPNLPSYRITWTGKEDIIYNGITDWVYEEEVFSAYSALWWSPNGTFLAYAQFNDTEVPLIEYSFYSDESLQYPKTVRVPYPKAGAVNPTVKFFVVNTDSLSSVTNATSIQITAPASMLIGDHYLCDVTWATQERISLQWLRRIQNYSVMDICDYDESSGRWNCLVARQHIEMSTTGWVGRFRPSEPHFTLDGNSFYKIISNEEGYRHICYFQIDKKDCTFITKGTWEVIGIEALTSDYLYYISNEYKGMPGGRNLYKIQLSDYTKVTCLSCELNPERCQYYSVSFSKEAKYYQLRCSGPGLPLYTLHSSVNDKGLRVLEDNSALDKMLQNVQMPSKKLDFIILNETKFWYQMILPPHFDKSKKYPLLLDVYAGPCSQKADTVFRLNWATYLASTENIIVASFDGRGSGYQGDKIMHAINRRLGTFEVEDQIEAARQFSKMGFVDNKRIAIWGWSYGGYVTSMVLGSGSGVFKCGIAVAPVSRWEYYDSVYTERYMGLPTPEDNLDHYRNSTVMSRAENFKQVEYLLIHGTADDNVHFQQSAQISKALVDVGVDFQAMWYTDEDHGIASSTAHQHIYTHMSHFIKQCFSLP

As for `CC1(C)CCC2(C(=O)O)CCC3(C)C(=CCC4C5(C)C=C(O)C(=O)C(C)(C)C5CCC43C)C2C1` (centres unmarked) [Compound 39], in assay [1], the “Inhibition mode hCES1A” value is “Competitive”, the Ki was 0.043 µM, the IC50 was found to be 0.055 ± 0.006 µM and the “Reversibility of hCES1A inhibition” value was “reversible inhibitors”. Besides, in assay [2], the lipid droplet formation entry is on record as “almost no lipid droplets were formed”. In assay [3], the IC50 is 6.02 ± 0.75 µM. Besides, in assay [4], the 50% inhibitory concentration (IC50) is over 100 µM.
As to `CC(=O)OC1CCC2(C)C(CCC3(C)C2CC=C2C4C(C)C(C)CCC4(C(=O)O)CCC23C)C1(C)C` (centres unmarked) [Compound 41], in assay [1], the “Inhibition mode hCES1A” value is reported as “Competitive”, the Ki came out at 0.019 µM, the IC50 was determined as 0.014 ± 0.002 µM and the “Reversibility of hCES1A inhibition” value is “reversible inhibitors”. For the same compound, the lipid droplet formation result in assay [2] is given as “almost no lipid droplets were formed”. Besides, the 50% inhibitory concentration (IC50) in assay [3] was found to be 5.02 ± 0.88 µM. Also, in assay [4], the half-maximal inhibitory concentration (IC50) is over 100 µM.
